Source: paper PMC5618421, “Anti-Inflammatory Effects of Curvularin-Type Metabolites from a Marine-Derived Fungal Strain Penicillium sp. SF-5859 in Lipopolysaccharide-Induced RAW264.7 Macrophages” (Marine Drugs, 2017)

Key:
Type in all cases: cell-based
[1] = test system: NO production in LPS-treated RAW 264.7 macrophages; assay: Inhibition of NO production (nitrite, Griess reaction) in LPS-treated RAW264.7 macrophages; details: Mus musculus; RAW264.7 macrophages pre-treated 3 h with compound, then LPS (1 μg/mL) 24 h; Griess reaction
Experimental: All isolated compounds (1–9) were evaluated for their anti-inflammatory effects. […] NO is a small molecule which is an intracellular mediator produced in various immune cells. It plays a pivotal role in the physiological and pathological condition of inflammatory symptoms. PGE2 can also regulate the immune and inflammatory responses. In this study, RAW264.7 macrophages were pre-treated for 3 h in the medium containing non-toxic concentrations (Table 2) of each compound (1–9), and then LPS (1 μg/mL) was treated for 24 h. According to the LPS stimulation of RAW264.7 macrophages, production of NO and PGE2 was increased, and the effects of all compounds on the production level of NO and PGE2 were evaluated by the Griess reaction and a PGE2 kit, respectively. […] To evaluate the impact of phenol and resorcinol groups in the curvularin-type metabolites for the anti-inflammatory activity, 5-O-methyl and 5,7,-di-O-methyl derivatives of curvularin (3a and 3b, respectively), as well as 5-O-acetyl and 5,7,-di-O-acetyl derivatives of curvularin (3c and 3d, respectively), were prepared, and the structures of 3a–3d were identified by comparison the ^1H and ^13C-NMR spectroscopic data with those of curvularin (3), and confirmed by their HRESIMS. […] The position of the methoxy group in 3a was confirmed by HMBC correlation between methoxy signal at δH 3.77 (3H, s, 5-OCH3) and δC 161.8 (C-5). The NOESY cross-peaks between acetyl proton ([…]) with H-2, H-4, and H-16 of 3c were used to identify the position of the acetyl group in 3c. […] Further systematic investigations are needed to clarify the structure activity relationship associated with the modification of the aliphatic part of the molecule.
As an indicator of NO production in RAW264.7 macrophages, production of nitrite, a stable end-product of NO oxidation, was estimated. Briefly, the concentration of nitrite in the conditioned media was determined by a method based on the Griess reaction, and the details of the assay were described previously.

RAW264.7 macrophages = assay: Cell viability (MTT) cytotoxic assay; details: RAW264.7 macrophages, MTT
Experimental: RAW264.7 macrophages were maintained at a density of 5 × 10^5 cells/mL in RPMI1640 medium supplemented with 10% heat-inactivated FBS, penicillin G (100 units/mL), streptomycin ([…]), and L-glutamine (2 mM), and were incubated at 37 °C in a humidified atmosphere containing 5% CO2. For determination of cell viability, cells (1 × 10^5 cells/well in 96-well plates) were incubated with 3-(4,5-dimethylthiazol-2-yl)-2,5-diphenyltetrazolium bromide (MTT) at a final concentration of 0.5 mg/mL for 3 h, and the formazan formed was dissolved in acidic 2-propanol. The optical density was measured at 540 nm with a microplate reader (BioRad, Hercules, CA, USA). The optical density of the formazan formed in control (untreated) cells was considered to represent 100% viability.

iNOS = assay: Western blot of iNOS protein expression in LPS-stimulated RAW264.7 macrophages; details: pre-treated 3 h, LPS 24 h
Description: (§1) Therefore, we further tested whether inhibitory effects of 8 against NO and PGE2 productions are correlated with the protein expression of pro-inflammatory enzymes (i.e., iNOS and COX-2, respectively), which are known to catalyze the production of NO and PGEs in LPS-stimulated cells. […] Upon the stimulation by LPS, macrophages can also trigger the production of pro-inflammatory cytokines such as TNF-α, and ILs. The overproduction of these cytokines contributes to the pathogenesis of inflammatory diseases. Thus, we further evaluated the effects of 8 on the mRNA expression of pro-inflammatory cytokines in the LPS-induced cells. The cells were pre-treated with indicated concentration for 3 h, followed by LPS stimulation (1 μg/mL) for 6 h. The mRNA expression of pro-inflammatory cytokines was determined by RT-qPCR.
(§2) Figure 2 Effects of 8 on protein expression levels of iNOS and COX-2 (a), and mRNA expression levels of IL-1β (Il1b) (b), IL-6 (Il6) (c), and TNF-α (Tnf) (d) in RAW264.7 macrophages. The cells were pre-treated for 3 h with the indicated concentrations of 8 and stimulated for 24 h (a), and 6 h (b–d) with LPS (1 μg/mL). The measurement of western blot analysis and RNA quantification for Il1b, Il6, and Tnf expression were performed as described in the Materials and Methods. […]
(§3) The proteins of iNOS, COX-2, NF-κB, and MAPKs were measured by Western blot analysis. […]

COX-2 = assay: Western blot of COX-2 protein expression in LPS-stimulated RAW264.7 macrophages; details: pre-treated 3 h, LPS 24 h
Description: as §1, §2, §3

IL-1β (Il1b) = assay: RT-qPCR of IL-1β mRNA in LPS-stimulated RAW264.7 macrophages; details: pre-treated 3 h, LPS (1 μg/mL) 6 h
TNF-α (Tnf) = assay: RT-qPCR of TNF-α mRNA in LPS-stimulated RAW264.7 macrophages; details: pre-treated 3 h, LPS (1 μg/mL) 6 h
NF-κB = assay: DNA binding activity of NF-κB in nuclear extracts (TransAM ELISA kit); details: pre-treated 3 h, LPS (1 μg/mL) 1 h
Experimental: Figure 3 Effects of 8 on NF-κB activation (nuclear-p50 and p65) (a), IκBα phosphorylation and degradation (b), and the DNA binding activity of NF-κB (c) in LPS-treated RAW264.7 macrophages. Cells were pre-treated with the indicated concentrations of 8 for 3 h and stimulated with LPS (1 μg/mL) for 1 h. Western blot analysis (IκBα and p-IκBα in the cytoplasm and NF-κB in the nucleus) was performed as described in the Materials and Methods. Representative blots from three independent experiments are shown. A commercially-available NF-κB ELISA kit (Active Motif) was used to test the nuclear extracts and determine the degree of NF-κB binding. The data shown represent the mean values of three independent experiments. * p < 0.05 compared with the group treated with LPS.
TransAM kit (Active Motif, Carlsbad, CA, USA) was used to estimate the DNA-binding activity of NF-κB in the nuclear extract according to the manufacturer’s instructions as described previously.

p38 = assay: Western blot of p38 phosphorylation in LPS-treated RAW264.7 macrophages; details: pre-treated 3 h, LPS (1 μg/mL) 30 min
Experimental: (§4) Figure 4 Effects of 8 on p38 (a), JNK (b), and ERK (c) phosphorylation in RAW264.7 macrophages. Cells were pre-treated with the indicated concentrations of 8 for 3 h and stimulated for 30 min with LPS (1 μg/mL). Cell extracts were subjected to Western blotting with antibodies specific for phosphorylated-p38 (p-p38), phosphorylated JNK (p-JNK), or phosphorylated ERK1/2 (p-ERK). Membranes were stripped and re-probed to measure the total abundance of each MAPK as a control measurement. Representative blots from three independent experiments are shown.
(§5) The proteins of iNOS, COX-2, NF-κB, and MAPKs were measured by Western blot analysis. The details of procedures for Western blot analysis were described previously.

[2] = test system: c-Jun N-terminal kinase (JNK); assay: Western blot of JNK phosphorylation in LPS-treated RAW264.7 macrophages; details: pre-treated 3 h, LPS (1 μg/mL) 30 min
Experimental: as §4, §5

**Q.** What does the source list for `C[C@H]1CCC/C=C/C(=O)c2c(O)cc(O)cc2CC(=O)O1` [Compound 8, (10E,15S)-10,11-dehydrocurvularin]?
**A.** IC50 [1]: 1900 ± 300 nM; Cytotoxicity (the maximum concentration not affecting cell viability) (RAW264.7 macrophages): 20 µM; iNOS protein expression (iNOS): attenuation of the excessive protein expression of iNOS and COX-2 in a dose-dependent manner; COX-2 protein expression (COX-2): attenuation of the excessive protein expression of iNOS and COX-2 in a dose-dependent manner; mRNA expression of IL-1β (IL-1β (Il1b)): markedly suppressed the mRNA expression of IL-1β, IL-6, and TNF-α in a dose-dependent manner; mRNA expression of TNF-α (TNF-α (Tnf)): markedly suppressed the mRNA expression of IL-1β, IL-6, and TNF-α in a dose-dependent manner; LPS-induced DNA binding activity of NF-κB (NF-κB): declined; LPS-induced phosphorylation of p38 (p38): did not suppress these phosphorylations; LPS-induced phosphorylation of JNK [2]: did not suppress these phosphorylations
